# Source: patent US7115665B1, “Inhibitors of endo-exonuclease activity for treating cancer” (Onocozyme Pharma, Inc., priority 2000, dated 2006)
# Like-named read-outs stand apart in the source and are kept apart here.
# Tests used:
# [1] = test system: H460 NSCLC cells; assay: cells; details: read-out: LC50
# [2] = test system: HT29 colon cancer cells; details: read-out: LC50; HT29, 2 day exposure
# [3] = test system: MCF-7 breast cancer cells; details: read-out: LC50; MCF-7, 2 day exposure
# [4] = test system: H520 NSCLC cells; assay: cells; details: read-out: LC50
# [5] = test system: H661 NSCLC cells; assay: cells; details: read-out: LC50
# [6] = test system: human endo-exonuclease; assay: Endo-exonuclease nuclease activity inhibition assay; type: biochemical
# Protocol: The cultured cells were detached with trypsin-EDTA and the cell suspensions were centrifuged at 4° C. with a force of 700 g for 10 minutes. The cell pellets were washed twice with cold phosphate buffered saline (PBS). The cells were then resuspended and sonicated in 20 mM Tris-HCl, pH 7.5, containing 5 mM EDTA and 1 mM PMSF (buffer A). The resulting cell lysis suspensions were centrifuged at 4° C. at 10,000 g for 15 min. […] After washing extensively with buffer A, (i.e. until the A280 of the eluates were zero), the column was then eluted with buffer A containing 3.5 M MgCl2 to elute the endo-exonuclease. The eluted endo-exonuclease was dialyzed extensively against buffer A with at least two changes of buffer and one change of distilled water. The endo-exonuclease was then concentrated by lyophilization.
# One unit of activity was defined as the amount of deoxyribonuclease that renders 1 μg of DNA acid-soluble in 30 min at 37° C. For the inhibition assay with the drugs, the drugs were added to the endo-exonuclease prior to the start of the nuclease reaction.
# [7] = test system: HT29 colon cancer cells; assay: cells; details: Homo sapiens, read-out: LC50
# [8] = test system: MCF-7 breast cancer cells; assay: cells; details: Homo sapiens, read-out: LC50
# [9] = test system: cancer cells; assay: Efficiency of drug combination at killing cancer cells; type: cell-based; details: FIG. 4; efficiency from LC50 ratios
# [10] = test system: Lewis lung carcinoma (M47) primary tumour
# Protocol: Lewis Lung Carcinoma Cell Line and Cell Culture: The Lewis lung carcinoma clone, M47, is a metastatic model. […] For tumour induction, cells were washed three times with phosphate buffer solution. They were then re-suspended at a dilution of 1×10^6 cells/0.1 ml. Only cells where viability was >95% were used for in vivo studies.
# The mouse strain used in this study was C57BL/10. After one-week of acclimatization, cells were transplanted into the mice subcutaneously, as a suspension of tumour cells. All animals were inoculated at the same site.
# To measure the effect of drugs on the primary tumour, drug solutions were administered by intraperitoneal (ip) injection every two days. Animals were subjected, on a daily basis, to general examination. Tumour growth was monitored over time. To determine the effect of drugs on tumour metastasis, the tumours were allowed to reach a size of 0.5–1.0 cm^3. Mice were randomized into various groups and the drugs were then given by ip. At the end of each experiment, animals were sacrificed and autopsied. Tumours, organs or both were removed under sterile conditions. Tumours were weighed. Organs were examined for gross pathological changes and then fixed in formalin. Lungs were fixed in Bouin's fixative and lung surface metastases were counted using a stereomicroscope.
# The Lewis lung carcinoma clone, M47, with a high metastatic potential to the lung was used. […] The cell used was confirmed to be free of mycoplasma. Cells were maintained in RPMI-1640 medium supplemented with 10% fetal bovine serum and 1% penicillin-streptomycin, under 5% CO2. Cells were then propagated and stocks of the same passages were established and stored in liquid nitrogen. Oncozyme studies were done with the same stock of cells and same passage number.
# For tumour induction, cells were grown to 70% confluence in complete medium and then collected using trypsin-EDTA solution [0.05% trypsin 0.53 mM EDTA-4Na in HBSS without Ca++. Mg++, and NaHCO3; Celigro No. 25–052-Li]. Cells were then centrifuged and washed three times with phosphate buffer solution [D-PBS, Ca++ and Mg++free; Cellgro No. 21–031-LV], and resuspended at a dilution of 0.1 to 1×10^6 cells/0.1 ml. Viability was examined by trypan blue staining and only cells in which the viability was >95% were used for in vivo studies.
# The mouse strain used in this study is C57BL/10 from Charles River Inc. Animals were housed 5 per cage and were fed a diet of animal chow and water ad libitum. After one week acclimatization, LLC cells were transplanted subcutaneously, as a suspension of tumour cells [2−5×10^5 viable cells per 0.1 ml], in the axillary region of the right flank. All animals were inoculated at the same site. Animals were subjected, on a daily basis, to general examination. Tumour growth was monitored every second or third day using calipers. Parameters measured were: tumour measured along the longest axis (length) and the perpendicular shortest axis (width) and the relative tumour volume (in cm^3) was calculated by the formula: [length (cm)×(width cm)^2] (approximately 10–15 days), mice were randomized into one of the following groups:
# The conditions for this group were identical to the group used for the experiments on metastases with the exception that the primary tumour was not removed, and the animals were maintained until the tumours reached a large size that justified animal sacrifice, or the animals manifested a discomfort that justified their sacrifice (reduced mobility, severe respiratory symptoms, etc.).
# Control animals were given the same volume of saline solution [0.9% sodium chloride]. The dose of each drug was normalized to body weight per animal.
# (§1) The pentamidine and cisplatinum were injected by intraperitoneal injections. Adriamycin was injected intravenously.
# [11] = test system: Lewis lung carcinoma (M47) lung metastases; assay: Lewis lung carcinoma lung metastases; type: in vivo, mouse (C57BL/10); details: for Number of Metastases/Lung: Blank 34 ± 3
# Description: All animals were inoculated at the same site.
# Tumour growth was monitored over time. […] Tumours, organs or both were removed under sterile conditions. Tumours were weighed.
# Animals were subjected to surgery to remove the primary tumour. The mice were lightly anesthetized with Forane. The skin overlying the tumour was cleaned with betadine and ethanols, in a laminar flow hood. A small skin incision (0.5–1 cm) was made using a sterile scalpel, and the tumour was carefully separated from the normal tissues (skin and muscle). Lewis Lung carcinoma cells (at early stage of growth; 1–3 weeks) are a well localized tumour and separation was easy to achieve without any significant damage to normal tissues. The tumour was removed, weighed and in some cases fixed for histopathology purposes. The wound was closed with surgical stainless steel clips (Autoclips; 9 mm; Clay Adams, Inc. Parsippany, N.J.). This site was further disinfected with betadine and the animal was housed as described earlier.
# In this group, mice were randomized after surgery into a group of 5 per cage. Cages were randomly assigned to specific experimental groups. The mice were then labelled by numbers using the “ear punching” method. Mice were checked on a daily basis to ensure the absence of infection. Animals with discomfort were sacrificed immediately. For each experiment, an additional extra spared group of control mice was included to determine the optimal timing for sacrifice in order to obtain a significant number of well localized lung metastases. This group was subjected to the same experimental procedure as group 1 with the exception of drug treatment.
# as §1
# At the end of each experiment (a total of 5–8 weeks), animals were sacrificed by dislocation and autopsied. Tumours, organs or both were removed under sterile conditions [using a laminar flow hood]. Tumours were weighed. […] Lungs were fixed in 10% Bouin's fixative diluted in a formalin solution, and lung surface metastases were counted using a stereomicroscope at 4× magnification or a magnifying-glass, and in some cases lungs were embedded in paraffin wax according to standard procedures. Embedded tissues were used to confirm metastases and further examine histopathological changes.
# [12] = mouse, in vivo, ip
# Protocol: (§2) A preliminary study was conducted on non-tumour bearing mice to examine the maximal tolerable doses of pentamidine that can be used for antitumour studies. Three intraperitoneal injections (day 1, day 3, and day 5) were tested of 25, 50, 100 and 200 mg/Kg of body weight respectively.
# [13] = test system: MCF7 cells; assay: Cell survival, clonogenic assay; type: cell-based, human; details: 1 week growth
# [14] = test system: normal primary human cells (human primary fibroblast cells); assay: Cell survival, clonogenic assay; type: cell-based; details: same conditions (0.1 mM to 1 mM)
# Description: These cells are normal human skin fibroblasts.
# [15] = test system: HeLa cells; assay: Cell survival, clonogenic assay; type: cell-based, human; details: 1 week growth
# [16] = Toxicity / maximal tolerable dose in non-tumour bearing mice; details: 100 mg/Kg ip, days 1, 3, 5, FIG. 8
# Protocol: as §2
# [17] = test system: RIF-1 radiation-induced fibrosarcoma tumour; assay: RIF tumour mouse model, polymer implant
smiles,measurement,setting,value
"CC(=O)NCC(=O)O.CC(=O)NCC(=O)O.N=C(N)c1ccc(N=NNc2ccc(C(=N)N)cc2)cc1 [Berenil, berenil]",CC50,"[1]; H460, 2 day exposure",> 4000 µM
same,CC50,[2],> 4000 µM
same,CC50,[3],3000 µM
same,CC50,"[4]; H520, 2 day exposure",> 4000 µM
same,CC50,"[5]; H661, 2 day exposure",> 4000 µM
same,Percent of Inhibition of endo-exonuclease activity,[6]; 2 mM,17%
"Cn1cc(NC(=O)c2cc(NC(=O)c3cc(NC=O)cn3C)cn2C)cc1C(=O)NCCC(=N)N [Distamycin A, distamycin A]",CC50,"[1]; H460, 2 day exposure",> 2000 µM
same,CC50,[2],> 2000 µM
same,CC50,[3],1520 µM
same,CC50,"[4]; H520, 2 day exposure",> 2000 µM
same,CC50,"[5]; H661, 2 day exposure",> 2000 µM
same,Percent of Inhibition of endo-exonuclease activity,[6]; 38 μM,30%
"COc1cc([C@@H]2c3cc4c(cc3[C@@H](O[C@@H]3O[C@@H]5CO[C@@H](C)O[C@H]5[C@H](O)[C@H]3O)[C@H]3COC(=O)[C@H]23)OCO4)cc(OC)c1O [Etoposide, etoposide]",CC50,"[1]; Homo sapiens, NCI-H460, 48 h",> 34000 µM
same,CC50,"[1]; Homo sapiens, NCI-H460, 96 h",> 34000 µM
same,CC50,"[4]; Homo sapiens, NCI-H520, 48 h",> 34000 µM
same,CC50,"[4]; Homo sapiens, NCI-H520, 96 h",> 34000 µM
same,CC50,"[7]; HT-29, 48 h",700 µM
same,CC50,"[7]; HT-29, 96 h",400 µM
same,CC50,"[5]; Homo sapiens, NCI-H661, 48 h",28000 µM
same,CC50,"[5]; Homo sapiens, NCI-H661, 96 h",15600 µM
same,CC50,"[8]; MCF7, 48 h",1000 µM
same,CC50,"[8]; MCF7, 96 h",1100 µM
same,Percent of Inhibition of endo-exonuclease activity,[6]; 50 μM,0%
"CO[C@@]12[C@H](COC(N)=O)C3=C(C(=O)C(C)=C(N)C3=O)N1C[C@@H]1N[C@@H]12 [Mitomycin C, mitomycin C]",Percent of Inhibition of endo-exonuclease activity,[6]; 50 μM,0%
"N=C(N)c1ccc(OCCCCCOc2ccc(C(=N)N)cc2)cc1 [Pentamidine, pentamidine]",CC50,"[1]; Homo sapiens, NCI-H460, 48 h",1340 µM
same,CC50,"[1]; Homo sapiens, NCI-H460, 96 h",160 µM
same,Efficiency at killing cancer cells of cisplatin combined with pentamidine versus cisplatin alone,[9],"up to 16,000 times"
same,Antitumour activity compared with cisplatin at 3–4 mg/Kg/ip,[10]; FIG. 13,as active as cisplatin
same,"Primary tumour effect, 50 mg/Kg pentamidine combined with adriamycin",[10]; FIG. 18,some beneficial effect
same,"Tumour response, combined with 3 mg/Kg cisplatin",[10]; FIGS. 14a and 14b,some animals showed a complete regression of the tumours
same,Inhibition of cancer growth compared with cisplatinum,"[10]; daily injection, FIG. 7",as effective in inhibiting the cancer growth as cisplatinum
same,Most active dose on growth of LLC primary tumour,"[10]; ip, p<0,01, FIGS. 10 to 15",50 mg/kg
same,Number of Metastases/Lung,[11]; 25 mg/kg,23 ± 3
same,Inhibition of lung metastases versus saline-treated control,"[11]; 50 mg/Kg, p<0.001, FIG. 16",more than 50%
same,Number of Metastases/Lung,[11]; 50 mg/kg,10 ± 2
same,"Effect on metastases, 50 mg/Kg/ip pentamidine with 4 mg/kg/ip cisplatin",[11]; FIG. 17,enhanced effect
same,"Effect on metastases, 50 mg/Kg/ip pentamidine with 5 mg/kg adriamycin/iv",[11]; FIG. 20,some beneficial effect
same,Effect on lung metastases,[11]; doses of 10–25 mg/Kg,no significant effect
same,Reduction of lung metastases,[11]; highest dosage tested,reduced metastases in a dose dependant manner by a factor of three
same,Most active dose on lung metastases,[11]; p<0.01,50 mg/kg
same,Highest tolerated dose,[12],50 mg/kg
same,Concentration at which compound began to kill the cancer cells,[13],0.1 mM
same,Lethal concentration,[13],1 mM
same,Effect on survival of normal primary human cells,[14],no effect
same,CC50,"[4]; Homo sapiens, NCI-H520, 48 h",240 µM
same,CC50,"[4]; Homo sapiens, NCI-H520, 96 h",130 µM
same,CC50,"[7]; HT-29, 48 h",270 µM
same,CC50,"[7]; HT-29, 96 h",60 µM
same,Concentration at which compound began to kill the cancer cells,[15],0.1 mM
same,Lethal concentration,[15],1 mM
same,CC50,"[5]; Homo sapiens, NCI-H661, 48 h",150 µM
same,CC50,"[5]; Homo sapiens, NCI-H661, 96 h",70 µM
same,Acute toxicity (death),[16],died because of acute toxicity
same,CC50,"[8]; MCF7, 48 h",150 µM
same,CC50,"[8]; MCF7, 96 h",80 µM
same,Percent of Inhibition of endo-exonuclease activity,[6]; 25 μM,37%
same,Percent of Inhibition of endo-exonuclease activity,[6]; 50 μM,50%
same,Percent of Inhibition of endo-exonuclease activity,[6]; 100 μM,100%
same,Efficacy at slowing tumour growth,"[17]; biodegradeable polymer tumour implant, 100 mm^3 RIF tumours, FIG. 5",intermediate in its efficacy at slowing tumour growth between the saline control and 5-fluorouracil
same,Side effects in test mice,[17]; polymer implant plus radiation,no obvious signs of any side effects
same,"Tumour growth, combination with radiation","[17]; polymer implant plus radiation 24 hours after implant, FIG. 6",no significant tumour growth for a much longer period
COc1cccc2c1C(=O)c1c(O)c3c(c(O)c1C2=O)C[C@@](O)(C(=O)CO)C[C@@H]3O[C@H]1C[C@H](N)[C@H](O)[C@H](C)O1 [adriamycin],Mortality,"[10]; 7.5 mg/Kg/iv, highest dose tested, FIG. 19",100%
same,Antitumour effect on primary tumour,[10]; minimal dose of 5 mg/Kg iv,potent antitumour effect
